US9206448B2, “Extraction solvents derived from oil for alcohol removal in extractive fermentation” (Butamax Advanced Biofuels LLC, priority 2010, dated 2015)
Values joined by “and” are separate entries in the source; they are usually repeats but may differ in a detail not shown here. Equal entries are not always repeated.

What was measured:
[1] = test system: strain NGCI-070; assay: Extractive fermentation, examples GLNOR661A-666A, 690A-695A, 721A-726A, 749A-754A; details: pH 5.5, fermentation broth
Description: (§1) Fermentation conditions: 30% pO2; temperature: 30° C.; pH 5.5 (unless noted otherwise); initial batch glucose: 20 g/L, maintained during production.
(§2) Both HPLC and GC analyses were used for the quantization of isobutanol in the aqueous phase and solvent phase respectively. Isobutanol in the aqueous was measured after filtration through a 0.2 um nylon filter with a HPLC (Agilent 1100, Agilent, Santa Clara, Calif.) under the following conditions: • Column: Bio-Rad, Aminex HPX-87H, No. 125-0143 • Mobile Phase: […] • Injection Volume: 10 uL • Flow Rate: 0.6 mL/min • Run Time: 22.5 minutes • Column Temperature: 65° C. • Detectors: Refractive Index • Detector Temperature: 40° C. • UV Detection: 210 nm, 4 nm bandwidth, Ref 360 nm, 100 nm bandwidth.
(§3) The solvent phase was measured with a GC (HP6890, Agilent, Santa Clara, Calif.) under the following conditions: • Column: J&W Scientific DB Waxter (50 m×0.32 mm ID, 1 um film) • Gas Carrier: Helium 4 mL/min • Injection Volume: 2 uL • Make Up Flow Rate: 40 mL/min • Run Time: 29 minutes • Oven Temperature: 40° C. for 5 min, 40° C. to 230° C. @10° C./min., 5 min 230° C. • Injector Split: 1:5 @ 250° C. • Flame Ionization Detection: 250° C.
(§4) The extractants were added to the fermentor broth at time zero exposing the culture to the solvent for the duration of the fermentation. Isobutanol concentrations in both the aqueous phase and organic phase were measured to calculate the partitioning coefficient of the extraction solvent. Glucose utilization was used to determine the biocompatability of the microorganism to the extractant.
(§5) The fermentations were carried out as described with the strain NGCI-065. The inoculum was prepared in two stages and incubated at 30° C. and 250 rpm in an incubator shaker (Innova 4200, New Brunswick Scientific, Edison, N.J.). The first stage or pre-seed was inoculated from a frozen glycerol seed stock, two vials were placed into a 250 mL flask with 30 mL of filter sterilized pre-seed media (Table 4) and grown for 24 hours to an OD of approximately 2. 15 mL of the pre-seed was then transferred to a 2 L flask with 270 mL of filter sterilized seed media (Table 5) for the second stage which was incubated for 24 hours. 30 mL of filter sterilized 10× YEP and 300 mL of filter sterilized 90-95% oleyl alcohol was then added and incubated for an additional 24 hours to a final OD of approximately 5-10 in the aqueous phase of the seed culture. For examples GLNOR639 and GLNOR640, the pH was 4.5.
Fermentation vessels (Applikon AD1010 Bioreactor, Applikon Biotechnology, Dover, N.J.) were sterilized with diH2O for 30 minutes (Amsco Renaissance 3033 Revas Steam Sterilizer, Steris Corporation, Mentor, Ohio). Once the vessels were finished sterilization in the autoclave and cooled to 30° C., the sterile diH2O was removed and the filter sterilized fermentation media was added to a volume of 280 mL. 70 mL of the aqueous phase from the second stage seed flasks was added to the fermentation vessel for a final aqueous volume of 350 mL. Immediately after inoculation, 100 mL of 10× YEP media supplementation was added as well as 450 mL of the respective extraction solvent for a final solvent to broth ratio of approximately 1:1. Fermentation set-point conditions were temperature 30° C., pO2 30%, pH 5.5 for GLNOR635A-638A and pH 4.5 for GLNOR639A-640A. The fermentation was sampled approximately every 8 hours from the time of inoculation to monitor glucose concentration, which was maintained between 5-20 g/L through the addition of 50% w/w glucose solution, and analyzed for isobutanol accumulation in both the aqueous phase and the extractant phase. Enough sample volume was taken at each time point to obtain a sample from both of the phases, then those samples were centrifuged in order to ensure a clean cut of each.
The examples in this set were performed the same as in the previous examples GLNOR635A-640A with the exception of the strain, pH, and supplement addition at time zero.

[2] = test system: strain NGCI-065; assay: Extractive fermentation, examples GLNOR635A-640A
Description: as §1, §2, §3, §4, §5
Fermentation vessels (Applikon AD1010 Bioreactor, Applikon Biotechnology, Dover, N.J.) were sterilized with diH2O for 30 minutes (Amsco Renaissance 3033 Revas Steam Sterilizer, Steris Corporation, Mentor, Ohio). Once the vessels were finished sterilization in the autoclave and cooled to 30° C., the sterile diH2O was removed and the filter sterilized fermentation media was added to a volume of 280 mL. 70 mL of the aqueous phase from the second stage seed flasks was added to the fermentation vessel for a final aqueous volume of 350 mL. […] The fermentation was sampled approximately every 8 hours from the time of inoculation to monitor glucose concentration, which was maintained between 5-20 g/L through the addition of 50% w/w glucose solution, and analyzed for isobutanol accumulation in both the aqueous phase and the extractant phase. […]

[3] = test system: Saccharomyces butanologen NGCI-070; assay: Shake flask incubation with fermentation broth, glucose consumption followed over time; format: cell-based, Saccharomyces cerevisiae; details: 3 parts broth to 1 part extractant
Description: Fatty amide/fatty acid aqueous ammonia preparation (1), and a preparation (1 a) constituted by preparation (1) mixed 1:1 with pure corn oil fatty acid (equivalent to 1:2 fatty amide:fatty acid) were incubated in shake flasks with fermentation broth containing the Saccharomyces butanologen NGCI-070 at a ratio of 3 parts broth to 1 part amide/acid mixture. […] Starting at a glucose concentration of 8.35 g/L, the shake flasks were then incubated for 25 h on an incubator shaker and the consumption of glucose followed as a function of time.

For `CCCCCCCC/C=C\CCCCCCCC(=O)O` [Oleic Acid], the “Kp (solvent partition coefficient)” value ([1]; listed as GLNOR665) was 2.61, the “Kp (solvent partition coefficient)” value ([1]; listed as GLNOR666) was 2.51 and the “Kp (solvent partition coefficient)” value ([2]; pH 4.5, fermentation broth, listed as GLNOR639) was 2.54. For the same molecule, the “Kp (solvent partition coefficient)” value ([2]; pH 4.5, fermentation broth, listed as GLNOR640) was 2.51, the “Kp (solvent partition coefficient)” value ([2]; pH 5.5, fermentation broth, listed as GLNOR637) was 2.64 and the “Kp (solvent partition coefficient)” value ([2]; pH 5.5, fermentation broth, listed as GLNOR638) was 2.56.
For `CCCCCCC(CO)CCCC` (stereo not drawn) [Isofol ™ 12, 2-butyl-1-octanol], the “Kp (solvent partition coefficient)” value ([1]; listed as GLNOR749) was 4.05 and the “Kp (solvent partition coefficient)” value ([1]; listed as GLNOR750) was 4.22.
`CCCCCCCC/C=C\CCCCCCCCO` [Oleyl Alcohol] was tested, and the “Kp (solvent partition coefficient)” value ([1]; listed as GLNOR661) was 3.35, the “Kp (solvent partition coefficient)” value ([1]; listed as GLNOR690) was 3.74 and the “Kp (solvent partition coefficient)” value ([1]; listed as GLNOR691) was 3.77. For the same molecule, the “Kp (solvent partition coefficient)” value ([2]; pH 5.5, fermentation broth) was 3.38, the Glucose conc. ([3]; 18 hrs) was 4.26 g/L and 4.46 g/L and the Glucose conc. ([3]; 25 hrs) was 0 g/L. The Glucose conc. ([3]; Time = 0) was 8.35 g/L.
